What was measured:
ddY-strain male mice = assay: Analgesic effect, modified Randall-Selitto's test (Tale pressure method); format: in vivo; conditions: 0.1 μmole/mouse, intracisternal injection, test at 5 min after injection, groups of 10 mice; control 1.17 ± 0.12
Procedure: Groups of 10 ddY-strain male mice weighing 24-30 g were used for measurement of analgesic effect of the peptide compounds of the present invention by modified Randall-Selitto's test (Tale pressure method). Analgesic test was performed at 5 min after intracisternal injection of the test drugs.

[1] = system: Wistar-strain rats (hippocampus EEG); assay: Neurotropic effect: EEG activity after injection into the hippocampus of freely moving rats; format: in vivo, rat; conditions: 100 ng to 10 μg in 2 μl saline injected unilaterally into the hippocampus
Procedure: (I) A neurotropic effect of the peptide compounds of the present invention was examined by the method of Maria-S. Oitzl and J. P. Huston [Brain research, 308, 33-42 (1984)].
Wistar-strain rats were implanted with a set of electrodes for recording EEG under anesthesia with pentobarbital (50 mg/kg, i.p.). The electrodes were bilaterally implanted into the hippocampus (Bregma -2.7 mm, Lateral 2.5 mm, Depth 2.8 mm) by reference to THE RAT BRAIN IN STEREOTAXIC COODINATES (George Paxion & Charles Watson, Academic press). Chemitorode, a injection guide cannula uniting with electrode for recording, was implanted in the temporoparietal left hole. The test drugs were unilaterally injected into the hippocampus of freely moving rats to examine their effect on EEG activity.
The rats were kept for about a week for a cure, and then used for the experiments. After the EEG activity was recorded for dozens of minutes in a normal state, 100 ng to 10 μg of the test drug dissolved in 2 μl of saline was injected into the hippocampus through the injection guide cannula. Only saline was used as a control. Immediately after the administration it began to record the EEG activity.

Question: For NCCCC(=O)O [GABA, γ-Aminobutyric acid], which “Pain Index” value (ddY-strain male mice) is on record?
Answer: 1.65 ± 0.13

Question: And the “time after administration at which characteristic EEG spikes appeared” value [1]?
Answer: a few minutes

Question: What about the “time after administration until which the EEG spikes continued” value [1] of the same molecule?
Answer: about 25 min
